Source: ChEMBL document CHEMBL1201862, “PubChem BioAssay data set” (2004)
Values belong to the compound of their own block, whether it stands above or below them. The source made the active and inactive calls.

How the values were obtained:
[1] = target: DNA dC->dU-editing enzyme APOBEC-3A (Homo sapiens, UniProt P31941); assay: A3A deaminase inhibition for selectivity – biochemical, dose response (AID 504722); format: functional
[2] = target: DNA dC->dU-editing enzyme APOBEC-3G (Homo sapiens, UniProt Q9HC16); assay: Dose Response confirmation of small molecule APOBEC3G DNA Deaminase Inhibitors via a fluorescence-based single-stranded DNA deaminase assay. [Related pubchem assays (depositor defined):AID493012, AID493028]; format: functional
[3] = target: Endoplasmic reticulum aminopeptidase 1 (Homo sapiens, UniProt Q9NZ08); assay: inhibition of human ERAP1 enzyme activity – biochemical, cherry-pick, set 2, plate reader, dose response (AID 743314)
[4] = target: Induced myeloid leukemia cell differentiation protein Mcl-1 (Homo sapiens, UniProt Q07820); format: functional
[5] = general mammalian cell viability loss – inhibitor set, cherry-pick, set 2, cytotoxicity control for miR-122 modulator project, dose response (AID 720697); format: functional, cell-based
[6] = target: T1, Microphthalmia-associated transcription factor (Homo sapiens, UniProt O75030); assay: reducers of TRPM1 reporter luminescence, concentration series – cell-based, SK-MEL-5, cherry-picked, set 3, MITF inhibitor project, dose response (AID 493073); format: functional;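 also: SK-MEL-5 melanoma cells with luciferase driven by the MITF target TRPM1 promoter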
T1 sequence (O75030 whole entry): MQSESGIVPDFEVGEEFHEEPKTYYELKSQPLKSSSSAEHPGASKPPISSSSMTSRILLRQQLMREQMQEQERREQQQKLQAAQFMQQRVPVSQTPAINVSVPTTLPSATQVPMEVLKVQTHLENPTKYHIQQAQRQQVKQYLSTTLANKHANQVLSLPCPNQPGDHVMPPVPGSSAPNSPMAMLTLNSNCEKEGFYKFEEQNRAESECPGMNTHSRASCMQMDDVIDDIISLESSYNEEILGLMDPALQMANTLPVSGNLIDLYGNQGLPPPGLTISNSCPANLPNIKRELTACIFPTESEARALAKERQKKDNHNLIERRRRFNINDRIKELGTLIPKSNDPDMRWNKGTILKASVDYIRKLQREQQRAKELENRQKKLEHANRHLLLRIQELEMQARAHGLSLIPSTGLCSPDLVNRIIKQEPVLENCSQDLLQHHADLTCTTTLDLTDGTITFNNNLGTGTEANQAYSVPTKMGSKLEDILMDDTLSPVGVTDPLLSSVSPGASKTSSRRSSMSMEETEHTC

[7] = target: Apoptotic protease-activating factor 1 (Homo sapiens, UniProt O14727); format: functional
[8] = viability loss in HepG2 hepatoma cells – cell-based, ATP luminescence, cherry-pick, activator set 2, cytotoxicity control, dose response (AID 1053143); format: functional
[9] = target: Matrix metalloproteinase-14 (Homo sapiens, UniProt P50281); assay: Dose Response confirmation of uHTS hits for a small molecule inhibitors of MT1-MMP activation in a fluorescence assay set 1.; format: functional
[10] = target: Alkaline phosphatase, placental type (Homo sapiens, UniProt P05187); assay: human placental alkaline phosphatase inhibition – biochemical, luminescence, confirmation (AID 1512); format: functional
[11] = HGIII-sPLA2 enzyme inhibition potency – biochemical, QFRET, IC50, dose response (AID 743457);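 also: green fluorescence rise as the enzyme cleaves BODIPY PC-A2 in liposomes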
Vero = assay: viability loss in Vero cells – cell-based, plate reader, cherry-pick samples, cytotoxicity control, dose response (AID 687020); format: functional; settings: Chlorocebus sabaeus
Paired box protein Pax-8 = Paired box protein Pax-8 (Homo sapiens, UniProt Q06710); assay: PAX8 transcriptional activity inhibition in RMG-I – RMG-I cells, luciferase, cherry-pick, dose response (AID 687027); format: functional, cell-based;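 also: luciferase reporter driven by Pax8 target thyroperoxidase promoter measured by SteadyGlo luminescence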
[12] = toxicity toward immortalized ovarian surface epithelium – cell-based, plate reader, dry powder samples, cytotoxicity control for PAX8 inhibitor project, dose response (AID 743045); format: functional
[13] = OVCAR-3 cell viability loss – plate reader, dry powder samples, PAX8 inhibitor project, dose response (AID 743044); format: functional, cell-based
[14] = target: Metabotropic glutamate receptor 3 (Rattus norvegicus, UniProt P31422); assay: inhibitors of rat mGlu3 Galpha15 signaling – TREx293 cells, calcium flux, mGlu3 NAM project, dose response (AID 651840); format: functional
[15] = target: Potassium channel subfamily K member 9 (Homo sapiens, UniProt Q9NPC2); assay: KCNK9 flux blockade, concentration-response – cell-based, FluxOR thallium flux, selectivity assay for TASK1 inhibitor project, SAR follow-up (AID 652211); format: functional;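 also: potency is for inhibitors of the channel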
[16] = viability loss in HepG2 hepatoma cells – cell-based, cherry-picks, set 5, cytotoxicity control, dose response (AID 1053118); format: functional

DNA dC->dU-editing enzyme APOBEC-3G, sequence (Q9HC16 whole entry): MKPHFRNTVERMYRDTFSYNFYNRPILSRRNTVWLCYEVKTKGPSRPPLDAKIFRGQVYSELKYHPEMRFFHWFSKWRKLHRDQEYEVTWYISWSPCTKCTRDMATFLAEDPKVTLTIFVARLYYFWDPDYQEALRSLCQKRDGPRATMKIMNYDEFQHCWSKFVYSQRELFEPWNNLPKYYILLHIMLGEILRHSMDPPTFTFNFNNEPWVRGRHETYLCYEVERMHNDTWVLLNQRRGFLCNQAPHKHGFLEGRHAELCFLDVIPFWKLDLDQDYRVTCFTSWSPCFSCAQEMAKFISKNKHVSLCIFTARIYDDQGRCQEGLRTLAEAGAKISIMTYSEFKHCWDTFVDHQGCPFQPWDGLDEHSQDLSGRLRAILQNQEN
Apoptotic protease-activating factor 1, sequence (O14727 whole entry): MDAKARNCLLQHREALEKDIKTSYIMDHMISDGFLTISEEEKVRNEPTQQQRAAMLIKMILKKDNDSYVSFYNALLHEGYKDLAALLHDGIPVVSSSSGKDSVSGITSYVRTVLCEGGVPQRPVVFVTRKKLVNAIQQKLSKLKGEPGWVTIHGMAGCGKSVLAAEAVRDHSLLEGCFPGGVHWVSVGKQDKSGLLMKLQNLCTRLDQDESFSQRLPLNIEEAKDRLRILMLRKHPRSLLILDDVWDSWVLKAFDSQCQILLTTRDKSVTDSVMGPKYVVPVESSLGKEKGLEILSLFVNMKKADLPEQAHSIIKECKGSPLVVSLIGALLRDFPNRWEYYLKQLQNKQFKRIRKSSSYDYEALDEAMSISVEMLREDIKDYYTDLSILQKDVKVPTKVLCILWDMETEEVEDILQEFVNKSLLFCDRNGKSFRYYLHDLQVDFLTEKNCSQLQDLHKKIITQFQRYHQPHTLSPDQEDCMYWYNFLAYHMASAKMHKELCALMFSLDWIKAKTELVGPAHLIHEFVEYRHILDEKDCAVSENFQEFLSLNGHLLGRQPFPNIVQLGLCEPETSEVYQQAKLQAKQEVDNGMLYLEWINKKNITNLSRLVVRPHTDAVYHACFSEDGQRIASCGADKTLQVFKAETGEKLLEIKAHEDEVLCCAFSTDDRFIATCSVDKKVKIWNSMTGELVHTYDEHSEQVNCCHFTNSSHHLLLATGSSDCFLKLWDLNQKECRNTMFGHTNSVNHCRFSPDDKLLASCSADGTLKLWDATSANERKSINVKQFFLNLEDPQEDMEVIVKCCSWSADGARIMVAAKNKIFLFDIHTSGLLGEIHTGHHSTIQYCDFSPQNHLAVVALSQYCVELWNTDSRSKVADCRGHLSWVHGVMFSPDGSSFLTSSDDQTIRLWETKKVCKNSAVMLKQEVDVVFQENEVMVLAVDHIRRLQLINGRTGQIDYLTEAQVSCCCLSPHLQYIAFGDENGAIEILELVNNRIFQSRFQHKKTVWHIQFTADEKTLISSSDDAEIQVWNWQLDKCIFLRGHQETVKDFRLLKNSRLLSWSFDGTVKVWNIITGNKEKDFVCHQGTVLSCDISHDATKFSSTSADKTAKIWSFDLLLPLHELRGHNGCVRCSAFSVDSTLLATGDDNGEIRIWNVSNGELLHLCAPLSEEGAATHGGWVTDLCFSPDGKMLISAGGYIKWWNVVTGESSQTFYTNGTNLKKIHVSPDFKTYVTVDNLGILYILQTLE
Metabotropic glutamate receptor 3, sequence (P31422 whole entry): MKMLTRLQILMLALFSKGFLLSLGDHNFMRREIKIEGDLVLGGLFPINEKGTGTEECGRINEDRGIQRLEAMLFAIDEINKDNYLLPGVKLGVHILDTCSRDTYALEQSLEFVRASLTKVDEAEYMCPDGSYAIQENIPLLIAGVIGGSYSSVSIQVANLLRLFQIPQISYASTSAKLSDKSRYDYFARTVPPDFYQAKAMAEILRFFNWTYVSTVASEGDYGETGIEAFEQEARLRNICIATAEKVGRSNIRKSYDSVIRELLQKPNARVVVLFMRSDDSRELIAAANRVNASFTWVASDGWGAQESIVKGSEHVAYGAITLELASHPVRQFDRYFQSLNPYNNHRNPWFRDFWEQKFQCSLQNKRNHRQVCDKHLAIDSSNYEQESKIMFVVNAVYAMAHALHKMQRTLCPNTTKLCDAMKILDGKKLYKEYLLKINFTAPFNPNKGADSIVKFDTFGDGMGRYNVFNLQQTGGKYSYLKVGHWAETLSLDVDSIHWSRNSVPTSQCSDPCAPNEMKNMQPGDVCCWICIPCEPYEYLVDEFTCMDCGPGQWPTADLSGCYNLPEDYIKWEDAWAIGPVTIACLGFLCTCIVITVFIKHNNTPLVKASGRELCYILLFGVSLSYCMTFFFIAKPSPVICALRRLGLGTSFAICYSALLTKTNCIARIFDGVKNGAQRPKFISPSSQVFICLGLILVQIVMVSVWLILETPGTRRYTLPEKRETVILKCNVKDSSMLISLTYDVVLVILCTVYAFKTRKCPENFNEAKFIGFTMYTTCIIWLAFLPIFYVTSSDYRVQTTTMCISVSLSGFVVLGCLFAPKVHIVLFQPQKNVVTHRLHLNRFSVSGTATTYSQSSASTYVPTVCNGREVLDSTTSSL
Potassium channel subfamily K member 9, sequence (Q9NPC2 whole entry): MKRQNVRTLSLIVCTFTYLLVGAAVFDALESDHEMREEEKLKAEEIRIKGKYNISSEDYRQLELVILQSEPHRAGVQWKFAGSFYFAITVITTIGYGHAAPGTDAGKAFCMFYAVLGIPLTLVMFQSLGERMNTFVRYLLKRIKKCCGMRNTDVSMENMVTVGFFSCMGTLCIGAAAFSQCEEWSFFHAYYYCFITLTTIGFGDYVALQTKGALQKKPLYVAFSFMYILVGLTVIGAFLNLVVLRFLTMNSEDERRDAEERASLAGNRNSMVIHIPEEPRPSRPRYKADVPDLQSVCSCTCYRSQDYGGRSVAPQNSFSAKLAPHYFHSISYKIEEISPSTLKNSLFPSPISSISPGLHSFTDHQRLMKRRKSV
Induced myeloid leukemia cell differentiation protein Mcl-1, sequence (Q07820 whole entry): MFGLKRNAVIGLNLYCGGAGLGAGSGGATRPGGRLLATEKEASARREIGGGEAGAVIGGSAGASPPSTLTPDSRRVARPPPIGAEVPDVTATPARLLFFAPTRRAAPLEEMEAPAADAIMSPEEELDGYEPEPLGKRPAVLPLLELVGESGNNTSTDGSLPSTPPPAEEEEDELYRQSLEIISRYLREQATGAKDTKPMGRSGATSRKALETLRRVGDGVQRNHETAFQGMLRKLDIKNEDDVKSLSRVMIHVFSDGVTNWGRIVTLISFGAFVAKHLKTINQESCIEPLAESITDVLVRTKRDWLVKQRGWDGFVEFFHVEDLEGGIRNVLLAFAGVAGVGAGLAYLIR
Paired box protein Pax-8, sequence (Q06710 whole entry): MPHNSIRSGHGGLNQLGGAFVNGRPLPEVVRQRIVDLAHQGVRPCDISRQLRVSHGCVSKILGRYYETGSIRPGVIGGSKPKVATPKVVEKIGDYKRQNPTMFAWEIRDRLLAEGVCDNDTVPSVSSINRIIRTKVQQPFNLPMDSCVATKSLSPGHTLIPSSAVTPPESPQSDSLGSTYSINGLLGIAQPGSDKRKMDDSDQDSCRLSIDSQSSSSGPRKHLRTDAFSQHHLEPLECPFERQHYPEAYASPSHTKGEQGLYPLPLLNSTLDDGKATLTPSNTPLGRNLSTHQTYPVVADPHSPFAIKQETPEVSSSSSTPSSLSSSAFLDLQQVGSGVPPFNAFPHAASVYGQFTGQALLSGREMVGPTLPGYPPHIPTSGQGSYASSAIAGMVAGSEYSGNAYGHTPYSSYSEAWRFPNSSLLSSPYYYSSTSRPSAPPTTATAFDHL
DNA dC->dU-editing enzyme APOBEC-3A, sequence (P31941 whole entry): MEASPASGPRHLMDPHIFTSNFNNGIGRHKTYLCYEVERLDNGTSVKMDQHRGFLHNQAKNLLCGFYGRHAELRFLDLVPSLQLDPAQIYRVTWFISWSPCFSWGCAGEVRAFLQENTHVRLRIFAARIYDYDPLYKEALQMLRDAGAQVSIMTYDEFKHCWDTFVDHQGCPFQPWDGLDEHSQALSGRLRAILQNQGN
Endoplasmic reticulum aminopeptidase 1, sequence (Q9NZ08 whole entry): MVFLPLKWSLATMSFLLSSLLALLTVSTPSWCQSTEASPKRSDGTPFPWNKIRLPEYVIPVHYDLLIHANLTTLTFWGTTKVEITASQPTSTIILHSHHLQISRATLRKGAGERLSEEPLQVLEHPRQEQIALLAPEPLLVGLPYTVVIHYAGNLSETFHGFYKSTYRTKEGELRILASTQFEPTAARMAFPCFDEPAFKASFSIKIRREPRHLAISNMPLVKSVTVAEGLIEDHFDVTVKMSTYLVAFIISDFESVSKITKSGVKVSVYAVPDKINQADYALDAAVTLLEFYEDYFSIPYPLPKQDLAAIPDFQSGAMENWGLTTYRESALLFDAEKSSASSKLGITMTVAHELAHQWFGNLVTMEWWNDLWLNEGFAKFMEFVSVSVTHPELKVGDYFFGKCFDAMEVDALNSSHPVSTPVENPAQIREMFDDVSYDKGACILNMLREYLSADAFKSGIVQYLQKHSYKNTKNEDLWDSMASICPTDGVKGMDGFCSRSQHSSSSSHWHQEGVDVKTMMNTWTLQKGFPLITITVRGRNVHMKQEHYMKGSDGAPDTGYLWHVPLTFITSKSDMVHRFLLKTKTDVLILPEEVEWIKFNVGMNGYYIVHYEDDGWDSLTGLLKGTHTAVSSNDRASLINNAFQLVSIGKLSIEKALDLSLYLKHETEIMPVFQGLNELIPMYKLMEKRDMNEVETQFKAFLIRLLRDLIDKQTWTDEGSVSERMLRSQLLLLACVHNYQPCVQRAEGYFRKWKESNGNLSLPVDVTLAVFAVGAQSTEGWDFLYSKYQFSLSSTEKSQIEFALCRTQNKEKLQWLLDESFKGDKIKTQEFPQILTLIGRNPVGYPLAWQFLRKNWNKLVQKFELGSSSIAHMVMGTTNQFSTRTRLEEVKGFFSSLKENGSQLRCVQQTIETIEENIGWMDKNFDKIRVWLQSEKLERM

Compound: O=C(CSc1cnn[nH]1)Nc1cccc(C(=O)O)c1
IC50 [1]: > 100 µM (inactive) | IC50 [2]: 15.3 µM (active) | AC50 [3]: 8 µM (active)

Compound: CN1CCN(c2ccc(Cl)cc2NC(=O)c2ccc(S(=O)(=O)N3CCCCCC3)cc2)CC1
IC50 [4]: 3.55 µM (active) | AC50 [5]: 5.58 µM (active)

Compound: CCc1ccc(NC2=CC(=O)C(=O)c3ccccc32)cc1
AC50 [6]: 3.59 µM (active) | IC50 [7]: 3.54 µM (active) | AC50 [8]: 6.77 µM (active)

IC50 [9]: 18.5 µM (active)
Compound: CNc1c(C(=O)O)ccc2c1C(=O)c1ccccc1C2=O

IC50 [10]: > 100 µM (inactive) | IC50 [11]: > 122 µM (inactive)
Compound: COc1ccccc1N=C(S)NNC(=O)c1nn(C)c(C)c1Br

Compound: Cc1cc(C)n2c(Nc3c(C)cccc3C)c(CCc3ccccc3)nc2n1
AC50 (Vero): 33.3 µM (active)

Compound: C[C@@H]1CCCCO[C@H](CN(C)Cc2ccccc2)[C@H](C)CN([C@@H](C)CO)C(=O)c2cc(NC(=O)Nc3ccc(C(F)(F)F)cc3)ccc2O1
AC50 (Paired box protein Pax-8): 9.11 µM (active) | AC50 [12]: 45.7 µM (active) | AC50 [13]: 42.1 µM (active)

IC50 [14]: 0.509 µM
Compound: COc1ccc(C#Cc2ccc(C(=O)N3CCC[C@@H](O)C3)c(F)c2)cc1

IC50 [15]: 5.37 µM (active)
Compound: O=C(Nc1cccc(NC(=O)c2ccccn2)c1)c1ccccc1

Compound: N#C[C@H]1[C@@H](c2ccccc2C2=CCCCC2)[C@H](CO)N1S(=O)(=O)c1ccccc1
AC50 [16]: > 47 µM (inactive)
